Like-named read-outs stand apart in the source and are kept apart here.
Test: Single ascending oral dose study in healthy volunteers: plasma pharmacokinetics
Format: in vivo, human
Settings: human, plasma, oral; for concentration at 48 h: 48 Hours Postdose; for concentration at 72 h: 72 Hours Postdose; for concentration at 6 h: 6 Hours Postdose; for concentration at 12 h: 12 Hours Postdose; for concentration at 24 h: 24 Hours Postdose
Excerpt: This example describes the first-in-human study of Compound I. Based on its mechanism of action, Compound I may offer a targeted therapy for patients with DCM caused by genetic or nongenetic mechanisms. The study was a randomized, double-blind, placebo-controlled, sequential group, single-ascending (oral) close study in healthy subjects aged 18-55 years. Eight dosing cohorts, each comprising eight healthy subjects, were enrolled. Within each cohort, subjects were randomized 6:2 to Compound I:placebo.
Subjects were resident at the clinical site for up to 5 days and 4 nights, from Day −1 (the day before dosing) to Day 4, and received a single dose of Compound I or placebo on Day 1. ECG telemetry was initiated 1 hour preclose and continued through 48 hours postclose (Day 3). Any subject with a preclose resting HR≥80 beats per minute was considered ineligible and not treated. […] Subjects returned for a safety follow-up visit 7 days (±1 day) after dosing.
All randomized study subjects received either Compound I or matching placebo as a single oral dose after a fasting period of at least 6 hours. Compound I drug substance is a crystalline, free-base, synthetic molecule with a molecular weight of 435.4 g/mol.
Compound I was provided as a powder for oral suspension. Placebo was provided as calcium carbonate powder. Both treatments were closed orally as a suspension. The suspension was made using Ora-Plus® suspending vehicle (Perrigo) and a cherry syrup flavoring vehicle (Humco), mixed 50% to 50%. The suspension was followed by approximately 100 mL water. The suspension was made up within 14 days from the time in which it was closed which was consistent with the stability data on the suspension. The suspension was made up so the volume administered to the subjects who received Compound I was the same at 20 mL.
Each subject received a close according to the cohort in which they were enrolled. Cohorts were enrolled sequentially, with each cohort receiving an escalated dose of Compound I. The closes administered were 3 mg, 10 mg, 25 mg, 50 mg, 100 mg, 175 mg, 350 mg, and 525 mg, respectively.
The concentrations of Compound I in human plasma and urine were quantitated by high performance liquid chromatography with tandem mass spectrometric detection (LC MS/MS) (Biological sample analysis study report Alturas AD17-726). Plasma samples were extracted by protein precipitation with acetonitrile containing internal standard MYK-5654. The calibration curves were linear over concentration range of 0.500 to 1000 ng/mL with a lower limit of quantification (LLOQ) of 0.500 ng/mL.
The PK Population included all subjects who received Compound I. Blood samples were collected for PK assessments. The actual timing of the samples may have been modified and/or up to an additional 2 samples may have been requested by the SRC after review of the data from previous cohorts. It was important that PK sampling occurred as closely as possible to the scheduled time (±10%). Both blood and urine samples were used for PK assessments.
In addition, for subjects who received placebo, a single plasma sample near the predicted tmax of Compound I was evaluated to confirm the lack of circulating Compound I. Plasma concentration data for Compound I was summarized using descriptive statistics, including mean, standard deviation (SD), median, minimum, and maximum values, and percent coefficient of variation. Other PK parameters included (but were not limited to) Cmax, tmax, AUC, t1/2, and MRT. Additionally, the apparent terminal-phase terminal half-life was calculated. The close proportionality of AUC and Cmax was explored.

[1] = 10 mg, 10 mg, read-out: Plasma concentration, Median
[2] = 25 mg, 25 mg, read-out: Plasma concentration, Geometric Mean
[3] = 25 mg, 25 mg, read-out: Plasma concentration, Mean
[4] = 25 mg, 25 mg, read-out: Plasma concentration, Median
[5] = 50 mg, 50 mg, read-out: Plasma concentration, Geometric Mean
[6] = 50 mg, 50 mg, read-out: Plasma concentration, Mean
[7] = 50 mg, 50 mg, read-out: Plasma concentration, Median

Compound: Cn1cc(S(=O)(=O)[C@@](C)(F)C2CCN(C(=O)Nc3ccon3)CC2)c(C(F)F)n1 [Compound I, (R)-4-(1-((3-(difluoromethyl)-1-methyl-1H-pyrazol-4-yl)sulfonyl)-1-fluoroethyl)-N-(isoxazol-3-yl)piperidine-1-carboxamide]
- concentration at 48 h [1]: 15.4 ng/mL
- concentration at 72 h (10 mg, 10 mg, read-out: Plasma concentration, Geometric Mean): 4.5 ng/mL
- concentration at 72 h (10 mg, 10 mg, read-out: Plasma concentration, Mean): 4.93 ng/mL
- concentration at 72 h [1]: 4.01 ng/mL
- AUC(0-t) (10 mg, read-out: AUC0-24, Geometric Mean): 2120 ng·h/mL
- AUC(0-t) (10 mg, read-out: AUC0-24, Mean): 2140 ng·h/mL
- AUC(0-t) (10 mg, read-out: AUC0-24, Median): 2250 ng·h/mL
- AUC(0-t) (10 mg, read-out: AUC0-48, Geometric Mean): 2980 ng·h/mL
- AUC(0-t) (10 mg, read-out: AUC0-48, Mean): 3030 ng·h/mL
- AUC(0-t) (10 mg, read-out: AUC0-48, Median): 3190 ng·h/mL
- AUC(0-t) (10 mg, read-out: AUC0-last, Geometric Mean): 3280 ng·h/mL
- AUC(0-t) (10 mg, read-out: AUC0-last, Mean): 3350 ng·h/mL
- AUC(0-t) (10 mg, read-out: AUC0-last, Median): 3420 ng·h/mL
- AUC(0-inf) (10 mg, read-out: AUC0-∞, Geometric Mean): 3350 ng·h/mL
- AUC(0-inf) (10 mg, read-out: AUC0-∞, Mean): 3410 ng·h/mL
- AUC(0-inf) (10 mg, read-out: AUC0-∞, Median): 3480 ng·h/mL
- Cmax (10 mg, read-out: Cmax, Geometric Mean): 138 ng/mL
- Cmax (10 mg, read-out: Cmax, Mean): 139 ng/mL
- Cmax (10 mg, read-out: Cmax, Median): 146 ng/mL
- half-life (10 mg, read-out: Half-Life Lambda Z, Geometric Mean (converted)): 13.2 h
- half-life (10 mg, read-out: Half-Life Lambda Z, Mean (converted)): 13.4 h
- half-life (10 mg, read-out: Half-Life Lambda Z, Median (converted)): 12.9 h
- MRT (10 mg, read-out: Mean Residence Time, Geometric Mean): 21.1 h
- MRT (10 mg, read-out: Mean Residence Time, Mean): 21.2 h
- MRT (10 mg, read-out: Mean Residence Time, Median): 20.1 h
- Tmax (10 mg, read-out: Tmax, Geometric Mean): 4.8 h
- Tmax (10 mg, read-out: Tmax, Mean): 4.85 h
- Tmax (10 mg, read-out: Tmax, Median): 5 h
- Vd/F (10 mg, read-out: Vz/F, Geometric Mean): 57.1 L
- Vd/F (10 mg, read-out: Vz/F, Mean): 58.5 L
- Vd/F (10 mg, read-out: Vz/F, Median): 55.8 L
- concentration at 6 h [2]: 281 ng/mL
- concentration at 6 h [3]: 286 ng/mL
- concentration at 6 h [4]: 286 ng/mL
- concentration at 12 h [2]: 205 ng/mL
- concentration at 12 h [3]: 211 ng/mL
- concentration at 12 h [4]: 223 ng/mL
- concentration at 24 h [2]: 114 ng/mL
- concentration at 24 h [3]: 118 ng/mL
- concentration at 24 h [4]: 124 ng/mL
- concentration at 48 h [2]: 33.3 ng/mL
- concentration at 48 h [3]: 35.8 ng/mL
- concentration at 48 h [4]: 35.5 ng/mL
- concentration at 72 h [2]: 8.4 ng/mL
- concentration at 72 h [3]: 9.78 ng/mL
- concentration at 72 h [4]: 8.51 ng/mL
- AUC(0-t) (25 mg, read-out: AUC0-24, Geometric Mean): 4550 ng·h/mL
- AUC(0-t) (25 mg, read-out: AUC0-24, Mean): 4650 ng·h/mL
- AUC(0-t) (25 mg, read-out: AUC0-24, Median): 4850 ng·h/mL
- AUC(0-t) (25 mg, read-out: AUC0-48, Geometric Mean): 6320 ng·h/mL
- AUC(0-t) (25 mg, read-out: AUC0-48, Mean): 6500 ng·h/mL
- AUC(0-t) (25 mg, read-out: AUC0-48, Median): 6890 ng·h/mL
- AUC(0-t) (25 mg, read-out: AUC0-last, Geometric Mean): 6920 ng·h/mL
- AUC(0-t) (25 mg, read-out: AUC0-last, Mean): 7160 ng·h/mL
- AUC(0-t) (25 mg, read-out: AUC0-last, Median): 7420 ng·h/mL
- AUC(0-inf) (25 mg, read-out: AUC0-∞, Geometric Mean): 7050 ng·h/mL
- AUC(0-inf) (25 mg, read-out: AUC0-∞, Mean): 7290 ng·h/mL
- AUC(0-inf) (25 mg, read-out: AUC0-∞, Median): 7570 ng·h/mL
- Cmax (25 mg, read-out: Cmax, Geometric Mean): 298 ng/mL
- Cmax (25 mg, read-out: Cmax, Mean): 304 ng/mL
- Cmax (25 mg, read-out: Cmax, Median): 313 ng/mL
- half-life (25 mg, read-out: Half-Life Lambda Z, Geometric Mean (converted)): 13.1 h
- half-life (25 mg, read-out: Half-Life Lambda Z, Mean (converted)): 13.3 h
- half-life (25 mg, read-out: Half-Life Lambda Z, Median (converted)): 12.7 h
- MRT (25 mg, read-out: Mean Residence Time, Geometric Mean): 20.6 h
- MRT (25 mg, read-out: Mean Residence Time, Mean): 20.8 h
- MRT (25 mg, read-out: Mean Residence Time, Median): 20.1 h
- Tmax (25 mg, read-out: Tmax, Geometric Mean): 4.64 h
- Tmax (25 mg, read-out: Tmax, Mean): 4.67 h
- Tmax (25 mg, read-out: Tmax, Median): 5 h
- Vd/F (25 mg, read-out: Vz/F, Geometric Mean): 67.3 L
- Vd/F (25 mg, read-out: Vz/F, Mean): 68.6 L
- Vd/F (25 mg, read-out: Vz/F, Median): 66.5 L
- concentration at 6 h [5]: 424 ng/mL
- concentration at 6 h [6]: 431 ng/mL
- concentration at 6 h [7]: 420 ng/mL
- concentration at 12 h [5]: 317 ng/mL
- concentration at 12 h [6]: 322 ng/mL
- concentration at 12 h [7]: 297 ng/mL
- concentration at 24 h [5]: 175 ng/mL
- concentration at 24 h [6]: 178 ng/mL
- concentration at 24 h [7]: 174 ng/mL
- concentration at 48 h [5]: 49.5 ng/mL
- concentration at 48 h [6]: 51.9 ng/mL
- concentration at 48 h [7]: 57.4 ng/mL
- concentration at 72 h [5]: 13.5 ng/mL
- concentration at 72 h [6]: 15.2 ng/mL
- concentration at 72 h [7]: 18.8 ng/mL
- AUC(0-t) (50 mg, read-out: AUC0-24, Geometric Mean): 7210 ng·h/mL
- AUC(0-t) (50 mg, read-out: AUC0-24, Mean): 7300 ng·h/mL
- AUC(0-t) (50 mg, read-out: AUC0-24, Median): 6730 ng·h/mL
- AUC(0-t) (50 mg, read-out: AUC0-48, Geometric Mean): 9930 ng·h/mL
- AUC(0-t) (50 mg, read-out: AUC0-48, Mean): 10100 ng·h/mL
- AUC(0-t) (50 mg, read-out: AUC0-48, Median): 9500 ng·h/mL
- AUC(0-t) (50 mg, read-out: AUC0-last, Geometric Mean): 11100 ng·h/mL
- AUC(0-t) (50 mg, read-out: AUC0-last, Mean): 11200 ng·h/mL
- AUC(0-t) (50 mg, read-out: AUC0-last, Median): 11200 ng·h/mL
- AUC(0-inf) (50 mg, read-out: AUC0-∞, Geometric Mean): 11200 ng·h/mL
- AUC(0-inf) (50 mg, read-out: AUC0-∞, Mean): 11300 ng·h/mL
- AUC(0-inf) (50 mg, read-out: AUC0-∞, Median): 11200 ng·h/mL
- Cmax (50 mg, read-out: Cmax, Geometric Mean): 490 ng/mL
- Cmax (50 mg, read-out: Cmax, Mean): 500 ng/mL
- Cmax (50 mg, read-out: Cmax, Median): 470 ng/mL
- half-life (50 mg, read-out: Half-Life Lambda Z, Geometric Mean (converted)): 13.4 h
- half-life (50 mg, read-out: Half-Life Lambda Z, Mean (converted)): 13.6 h
- half-life (50 mg, read-out: Half-Life Lambda Z, Median (converted)): 13.8 h
- MRT (50 mg, read-out: Mean Residence Time, Geometric Mean): 20.8 h
- MRT (50 mg, read-out: Mean Residence Time, Mean): 21 h
- MRT (50 mg, read-out: Mean Residence Time, Median): 21.5 h
- Tmax (50 mg, read-out: Tmax, Geometric Mean): 4.66 h
- Tmax (50 mg, read-out: Tmax, Mean): 4.69 h
- Tmax (50 mg, read-out: Tmax, Median): 5 h
- Vd/F (50 mg, read-out: Vz/F, Geometric Mean): 86.6 L

Source: patent US20220265629A1, “TREATMENT OF SYSTOLIC DYSFUNCTION AND HEART FAILURE WITH REDUCED EJECTION FRACTION WITH THE COMPOUND (R)-4-(1-((3-(DIFLUOROMETHYL)-1-METHYL-1H-PYRAZOL-4-YL)SULFONYL)-1-FLUOROETHYL)-N-(ISOXAZOL-3-YL)PIPERIDINE-1-CARBOXAMIDE” (MyoKardia, Inc., priority 2019, published 2022)
